Assay results: paper PMC8118497, “Facile synthesis of PEI-based crystalline templated mesoporous silica with molecular chirality for improved oral delivery of the poorly water-soluble drug” (Drug Delivery, 2021)
Like-named read-outs stand apart in the source and are kept apart here.

What was measured:
[1] = In vivo pharmacokinetics after oral administration; design: species or system Sprague-Dawley rats; conditions: rats
Experimental: Twelve male Sprague-Dawley rats (SD rats, 180–220 g body weight) were randomly divided into three groups (n = 4): NMP group, NMP/PEIs@TA-CMS group and NMP/MCM41 group. Prior to the experiment, animals were fasted overnight with free access to water. The animals were orally administered the water suspensions of NMP, NMP/PEIs@TA-CMS and NMP/MCM4 with a drug dose of 2.5 mg. At appropriate sampling times, aliquot blood sample (about 0.6 mL) was withdrawn via the retro-orbital venous sinus, centrifuged to separate the plasma, and stored at −20 °C.
In the pretreatment procedure, 20 μL of internal standard solution (nitrendipine, 20 μg/mL) was added into 200 μL plasma sample and vortexed for 1 min. Afterwards, 100 μL NaOH (0.01 mol/L) was uniformly mixed with the system and vortexed for 1 min. The drug was extracted by 2.5 mL diethyl ether, vortexed for 5 min, and centrifugated for 12 min to separate the organic layer (2 mL). The organic layer (2 mL) was then transferred to a new tube and evaporated to dryness under a gentle stream of N2. After reconstituting with 100 μL mobile phase, the 20 μL sample was analyzed by high performance liquid chromatography (HPLC) method. The separation procedure was performed on a Kromasil ODS-2C18 column (Thermo ODS-2 Hypersil, 250 mm × 4.6 mm, […], UK) equipped with a JanuSep C18 pre-column (Liaoning, China), and the column temperature was kept at 25 °C. The UV detector was set at 240 nm. The mixture of methanol, acetonitrile and water (3:4:3, v/v/v) was selected as the optimized mobile phase with a flow rate of 1 mL/min. The NMP content was calculated according to internal standard method, and the main pharmacokinetic parameters were obtained using the software of DAS 2.0.

[2] = test system: cerebral anoxia of mice induced by NaNO2; experiment: In vivo pharmacodynamics: survival time of mice on cerebral anoxia induced by NaNO2; design: species or system Kunming mice; conditions: oral dose 0.5 mg NMP (middle dose); NaNO2 i.p. 90 min post administration
Experimental: The pharmacodynamics study was performed to further evaluating the effect of PEIs@TA-CMS on improving the oral adsorption of NMP. 36 SPF-grade Kunming mice (18–22 g body weight) were assigned into six groups, randomly (n = 6): Normal saline group, NMP group, NMP/PEIs@TA-CMS (low dose) group, NMP/PEIs@TA-CMS (middle dose) group, NMP/PEIs@TA-CMS (high dose) group and NMP/MCM41 group. Before dosing, animals were fasted overnight with free access to water. Animals in the Normal Saline group were received oral treatment of 0.5 mL normal saline, and were considered as negative control. While for NMP group which severed as positive control, 0.5 mg pure NMP was suspended in 0.5 mL normal saline and was imposed to animals. Normal saline suspensions of NMP/PEIs@TA-CMS and NMP/MCM41 containing 0.5 mg NMP were also oral administrated to mice. Meanwhile, half and twice of the dose in NMP/PEIs@TA-CMS (middle dose) group, which were respectively in doses equivalent to 0.25 mg and 1 mg NMP, were given to mice to further study the influence of dose. […] Then the clinic manifestation and survival time of mice was recorded to study the protective effect of NMP formulations on mice cerebral anoxia.

[3] = background statement, no reference given; cited from earlier work
[4] = In vitro release of NMP, USP II paddle method in 0.5% SDS solution; format: physicochemical; conditions: 250 mL, 37 °C, 50 rpm, 10 mg NMP
Experimental: The in vitro release behavior of samples was assessed by a USP II paddle method on a dissolution apparatus (ZRS-8G, Huanghai Medicament Test Instrument, China). Prewarmed medium of 0.5% (w/v) sodium dodecyl sulfate (SDS) solution (250 mL, 37 °C) was added to the dissolution cup with a stirrer rotation speed of 50 rpm. 10 mg NMP, NMP/MCM41 and NMP/PEIs@TA-CMSs samples containing 10 mg of NMP were suspended in the release medium. 5 mL of aliquots were collected and replaced by an equal volume of fresh isothermal supplement at predetermined time intervals, After filtering through a 0.22 μm membrane filter, the drug release amounts were tested by UV spectroscopy (UV-1750, Shimadzu, Japan) at 238 nm. All in vitro release studies were repeated three times.

For COCCOC(=O)C1=C(C)NC(C)=C(C(=O)OC(C)C)C1c1cccc([N+](=O)[O-])c1 (stereo not drawn) [NMP, nimodipine], the half-life ([1]; male, Sprague-Dawley, rat, plasma, drug dose 2.5 mg) was 10.9 ± 1.13 h, the MRT inf ([1]; male, Sprague-Dawley, rat, plasma, drug dose 2.5 mg, read-out: MRT0-∞) was 8.84 ± 1.73 h and the Cmax ([1]; male, Sprague-Dawley, rat, plasma, drug dose 2.5 mg, read-out: maximum concentration (Cmax)) was 100 ng/mL. The AUC(0-inf) ([1]; male, Sprague-Dawley, rat, plasma, drug dose 2.5 mg, water suspension) was 1190 ± 160 ng·h/mL, the Cmax ([1]; drug dose 2.5 mg) was 100 ± 20 ng/mL and the Tmax ([1]; drug dose 2.5 mg) was 0.5 ± 0 h. For the same compound, the Relative bioavailability ([1]; drug dose 2.5 mg, relative to pure NMP) was 100%, the “time of second plasma concentration peak (double peaks)” value ([1]; post administration, suggests enterohepatic circulation) was 8 h and the “survival time of mice after injection of NaNO2” value [2] was 14.33 min. For the same compound, the bioavailability [3] was “lower than 13%”, the “drug release amount within 60 min” value [4] was 29.24% and the “drug release amount within 240 min” value [4] was 41.32%.
